ChEMBL document CHEMBL1124906, “5'-O-phosphonomethyl-2',3'-dideoxynucleosides: synthesis and anti-HIV activity” (J Med Chem, 1990)

Key:
MT4 [1] = experiment: Effective concentration achieving 50% protection of MT-4 cells against the cytopathic effect of HIV-1; format: functional, cell-based, Homo sapiens
[2] = Selectivity index is the ratio of CC50 to EC50; format: functional
MT4 [3] = experiment: Cytotoxic concentration required to reduce the viability of normal uninfected MT-4 cells by 50%; format: functional, Homo sapiens
[4] = target: Human immunodeficiency virus type 1 reverse transcriptase (Human immunodeficiency virus 1, UniProt Q72547); experiment: Compound was evaluated for the 50% inhibitory concentration on human immunodeficiency virus associated reverse transcriptase

IC50 [4] [µM]	SMILES	EC50 (MT4 [1]; Homo sapiens, MT4) [µM]	SI [2]	CC50 (MT4 [3]; Homo sapiens, MT4) [µM]	EC50 (MT4 [1]; mt4) [µM]	CC50 (MT4 [3]) [µM]
–	Cc1cn([C@H]2C[C@H](F)[C@@H](CO)O2)c(=O)[nH]c1=O [ALOVUDINE]	0.001	197	–	–	–
–	Cc1cn([C@H]2C[C@H](F)[C@@H](COCP(=O)(O)O)O2)c(=O)[nH]c1=O	0.9	19	17.3	–	–
322	CC1CN([C@H]2C[C@H](N=[N+]=[N-])[C@@H](COCP(=O)(O)OP(=O)(O)OP(=O)(O)O)O2)C(=O)NC1=O (some centres undefined)	–	–	–	–	–
–	O=c1ccn([C@H]2CC[C@@H](COCP(=O)(O)O)O2)c(=O)[nH]1	90	> 5	> 500	–	–
–	Cc1cn([C@H]2C[C@H](N=[N+]=[N-])[C@@H](CO)O2)c(=O)[nH]c1=O [ZIDOVUDINE]	0.003	1600	4.8	–	–
–	Cc1cn([C@H]2C[C@H](N=[N+]=[N-])[C@@H](COCP(=O)(O)O)O2)c(=O)[nH]c1=O	1.28	125	161	–	–
–	Nc1ccn([C@H]2CC[C@@H](COCP(=O)(O)O)O2)c(=O)n1	> 500	> 1	> 500	–	–
–	Cc1cn([C@H]2CC[C@@H](COCP(=O)(O)O)O2)c(=O)[nH]c1=O	500	> 1	> 500	–	–
–	CO[C@H]1C[C@H](n2cc(C)c(=O)[nH]c2=O)O[C@@H]1COCP(=O)(O)O	500	> 1	> 500	–	–
–	Cc1cn([C@H]2C[C@H](F)[C@@H](COCP(=O)(O)OP(=O)(O)OP(=O)(O)O)O2)c(=O)[nH]c1=O (stereo in doubt; 30)	–	> 5	–	100	> 500
–	Cc1cn([C@H]2C[C@H](N)[C@@H](COCP(=O)(O)O)O2)c(=O)[nH]c1=O	> 500	> 1	> 500	–	–
–	CCOP(=O)(O)COC[C@@H]1CC[C@H](N2CCC(=N)NC2=O)O1	> 500	–	> 500	–	–
–	Cc1cn([C@H]2C[C@H](N=[N+]=[N-])[C@@H](COCP(=O)(O)OP(=O)(O)OP(=O)(O)O)O2)c(=O)[nH]c1=O	1.15	–	0.023	–	–
